Patent EP2857388A1, “Azoles containing sulfone” (Grünenthal GmbH, priority 2013, dated 2015)

Target: T1, human B1R (Homo sapiens, UniProt P46663)
T1 construct: expressed in transfected cells; host or cells: CHO K1 cells (Chinese Hamster Ovary), stably transfected
T1 sequence (P46663 1-353): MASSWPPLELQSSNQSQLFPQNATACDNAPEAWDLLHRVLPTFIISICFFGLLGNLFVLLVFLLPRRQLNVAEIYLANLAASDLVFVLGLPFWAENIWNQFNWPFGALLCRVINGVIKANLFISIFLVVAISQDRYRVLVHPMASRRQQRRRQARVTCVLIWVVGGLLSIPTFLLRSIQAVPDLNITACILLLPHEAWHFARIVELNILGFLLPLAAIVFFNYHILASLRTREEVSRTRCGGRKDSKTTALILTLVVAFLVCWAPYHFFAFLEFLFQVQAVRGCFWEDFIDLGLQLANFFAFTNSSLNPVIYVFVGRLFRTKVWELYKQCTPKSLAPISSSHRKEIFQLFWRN
Assay: Functional assay at bradykinin receptor 1 (B1R): Ca2+ fluorescence (Fluo-4) in FLIPR/Novostar, antagonist mode
Format: cell-based
Details: test substance 10 µM; CHO K1 cells stably transfected with human B1R gene (hB1R-Zellen); agonist Lys-Des-Arg9-Bradykinin at EC80; % inhibition relative to maximal achievable inhibition; read-out: % Inhibierung (human B1R) bei 10 µM
Method in brief: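 CHO K1 cells stably expressing human B1R were loaded with Fluo-4 and preincubated 6–20 min with test compound before Lys-Des-Arg9-bradykinin at its EC80. Peak fluorescence (ex 488/em 540 nm) gave % inhibition versus maximal inhibition; IC50 from several concentrations, n=2 or 3.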

Compound	inhibition at 10 µM [%]
COCCN1CCC(NC(=O)Cc2nc(CS(=O)(=O)c3cc(C)c(Cl)cc3C)no2)C(C)(C)C1 (stereo not drawn) [CC-77, 2-[3-[[(4-Chlor-2,5-dimethyl-phenyl)sulfonyl]-methyl]-[1,2,4]oxadiazol-5-yl]-N-[1-(2-methoxy-ethyl)-3,3-dimethyl-piperidin-4-yl]-acetamid]	80
Cc1cc(S(=O)(=O)Cc2noc(CC(=O)NC3CCC(c4ccncc4)CC3(C)C)n2)c(C)cc1Cl (stereo not drawn) [CC-80, 2-[3-[[(4-Chlor-2,5-dimethyl-phenyl)sulfonyl]-methyl]-[1,2,4]oxadiazol-5-yl]-N-(2,2-dimethyl-4-pyridin-4-yl-cyclohexyl)-acetamid]	99
Cc1cc(S(=O)(=O)Cc2noc(CC(=O)NC3CCC(N(C)C)CC3)n2)c(C)cc1Cl (stereo not drawn) [CC-81, 2-[3-[[(4-Chlor-2,5-dimethyl-phenyl)sulfonyl]-methyl]-[1,2,4]oxadiazol-5-yl]-N-(4-dimethylamino-cyclohexyl)-acetamid]	79
COc1cc(C)c(S(=O)(=O)Cc2nnc(CC(=O)NC3CCC(N4CCN(C)CC4)CC3(C)C)o2)c(C)c1 (stereo not drawn) [CC-86, N-[2,2-Dimethyl-4-(4-methyl-piperazin-1-yl)-cyclohexyl]-2-[5-[[(4-methoxy-2,6-dimethylphenyl)sulfonyl)-methyl]-[1,3,4]oxadiazol-2-yl]-acetamid]	100
COc1cc(C)c(S(=O)(=O)Cc2nnc(CC(=O)N(C)C3CCNCC3(C)C)o2)c(C)c1 (stereo not drawn) [CC-88, N-(3,3-Dimethyl-piperidin-4-yl)-2-[5-[[(4-methoxy-2,6-dimethyl-phenyl)sulfonyl]-methyl]-[1,3,4]oxadiazol-2-yl]-N-methyl-acetamid]	97
Cc1cccc(Cl)c1S(=O)(=O)Cc1noc(CC(=O)NC2CCNCC2)n1 [CC-90, 2-[3-[[(2-Chlor-6-methyl-phenyl)sulfonyl]-methyl]-[1,2,4]oxadiazol-5-yl]-N-piperidin-4-yl-acetamid]	72
Cc1cccc(Cl)c1S(=O)(=O)Cc1noc(CC(=O)NC2CCC(N3CCCC3)CC2(C)C)n1 (stereo not drawn) [CC-91, 2-[3-[[(2-Chlor-6-methyl-phenyl)sulfonyl]-methyl]-[1,2,4]oxadiazol-5-yl]-N-(2,2-dimethyl-4-pyrrolidin-1-yl-cyclohexyl)-acetamid]	97
Cc1cccc(Cl)c1S(=O)(=O)Cc1noc(CC(=O)NC2CCC(N3CCCC3)CC2)n1 (stereo not drawn) [CC-93, 2-[3-[[(2-Chlor-6-methyl-phenyl)sulfonyl]-methyl]-[1,2,4]oxadiazol-5-yl]-N-(4-pyrrolidin-1-yl-cyclohexyl)-acetamid]	100
COCCN1CCC(NC(=O)Cc2nc(CS(=O)(=O)c3c(C)cccc3Cl)no2)C(C)(C)C1 (stereo not drawn) [CC-94, 2-[3-[[(2-Chlor-6-methyl-phenyl)sulfonyl]-methyl]-[1,2,4]oxadiazol-5-yl]-N-[1-(2-methoxy-ethyl)-3,3-dimethyl-piperidin-4-yl]-acetamid]	100
Cc1cccc(Cl)c1S(=O)(=O)Cc1noc(CC(=O)NC2CCC(NC3CC3)CC2(C)C)n1 (stereo not drawn) [CC-95, 2-[3-[[(2-Chlor-6-methyl-phenyl)sulfonyl]-methyl]-[1,2,4]oxadiazol-5-yl]-N-[4-(cyclopropylamino)-2,2-dimethyl-cyclohexyl]-acetamid]	100
Cc1cccc(Cl)c1S(=O)(=O)Cc1noc(CC(=O)NC2CCN(C)CC2(C)C)n1 (stereo not drawn) [CC-96, 2-[3-[[(2-Chlor-6-methyl-phenyl)sulfonyl]-methyl]-[1,2,4]oxadiazol-5-yl]-N-(1,3,3-trimethyl-piperidin-4-yl)-acetamid]	100
COc1cc(C)c(S(=O)(=O)Cc2nnc(CC(=O)NC3CCNCC3)o2)c(C)c1 [CC-97, 2-[5-[[(4-Methoxy-2,6-dimethyl-phenyl)sulfonyl]-methyl]-[1,3,4]oxadiazol-2-yl]-N-piperidin-4-yl-acetamid]	98
